Measured values as given in US20260248087A1, “GENERATING DOUBLED HAPLOID PLANTS” (Syngenta Crop Protection AG, priority 2023, published 2026).

Experiments:
[1] = tested on: GST27; assay: GST27 induction, metcamifen pre-treatment of maize ears; assay type: cell-based
Procedure: (§1) For the examples below, GST27 was used as a quick indicator for treatment effectiveness.
The effect of temperature was tested independently by comparing 6° C. and 28° C. for both 3 and 5 days with 150 PAR light.
Maize ears were pre-treated with metcamifen prior to embryo isolation and before moving the embryos to colchicine-containing doubling media. In all experiments, doubling media is semi-solid, thickened with Gelzan, unless liquid media is specified. Two methods of delivering the safener at concentrations of 100 and 1000 mg/L were tested. The first method wrapped the ear in a paper towel that was wet with formulated metcamifen. The second method used a sprayer to deliver the formulated metcamifen onto the ear surface at 6° C. with 150 PAR light. GST27 was measured after metcamifen pre-treatment and again at the end of colchicine treatment. A low level of GST27 was induced (<10 ng/mg Total Soluble Protein (TSP)) at the end of the ear pre-treatment. Following ear pre-treatment, embryos were isolated and treated with colchicine for 48 hours.
The addition of 0.5% Tween20 in the formulation with metcamifen at both 100 and 1000 mg/L was tested in combination with spraying corn ears as a pre-treatment prior to embryo isolation.

[2] = tested on: GST27; assay: GST27 induction, metcamifen post-treatment during germination; assay type: cell-based, maize; conditions: for GST27 Mean: post-treatment in germination media (2.5 g/L Gelzan)
Procedure: as §1
Doubled haploid embryos were treated with metcamifen during germination. Metcamifen was tested in the germination media at 0, 5, and 10 mg/L after colchicine treatment completion for 24 or 48 hours. The germination media comprised Gelzan at a concentration of 3.5 g/L. Four genotypes were tested representing two heterotic groups. […] The percent potting rate was not increased as result of these post-treatments. […] This led to a looping of the roots. A reduction in Gelzan concentration from 3.5 g/L to 2.5 g/L was tested (comparison data not presented here). The experiments were then carried out with 2.5 g/L Gelzan for metcamifen post-treatments while the control (0 metcamifen) contained 3.5 g/L Gelzan. Metcamifen was tested as 0, 5, 10 and 20 mg/L after colchicine treatment completion for 24 and 48 hours. The reduction in Gelzan of the metcamifen post-treatments led to a higher percent potting rate (see Table 5).

[3] = tested on: isolated embryos; assay: Potted rate, transplant rate and seedling height, thiamethoxam co-treatment during colchicine doubling; assay type: in vivo, maize
Description: As used herein, the term “potted rate” or “potting rate” refers to the percent of germinated embryos successfully transferred to soil from total treated haploid embryos. The “potted rate” is used as an indication of plant health in monitoring the success of recovery and growth after treatment of haploids. As used herein, the term “transplant rate” refers to the survival of healthy plants after embryos were germinated and transferred to soil.
In addition to testing of safeners such as metcamifen, testing the effects of other compounds, such as thiamethoxam (TMX), were completed. Isolated embryos were co-treated with TMX during colchicine doubling in the doubling media. The co-treatments were allowed to incubate for 24 or 48 hours. Four genotypes representing two heterotic groups were tested with replication. The effect on potting rate from in vitro culture was evaluated.
Initial testing measured the effect of TMX at concentrations of 0, 150, or 750 mg/L for 24 or 48 hours. […] The strongest effect of TMX co-treatment seen with the 48-hour duration was at 750 mg/L TMX compared to the control.
Further testing was done and TMX was applied to isolated embryos at levels of 0, 750, 1500, 2000 mg/L during colchicine co-treatment. The co-treatments were incubated for 24 or 48 hours.
TMX was applied to isolated embryos at levels of 0, 2000, 4000, 8000 mg/L during colchicine co-treatment. The co-treatments were incubated for durations of 24 or 48 hours.
TMX was applied to isolated embryos at levels of 0, 2000, 4000, or 6000 mg/L during colchicine co-treatment. The co-treatments were incubated for durations of 24 or 48 hours. […] The highest percent transplanted rates were 86% and 83% for co-treatments 4000 mg/L at 24 hours and 6000 mg/L at 48 hours, respectively (see Table 8).

[4] = Table 6: co-treatment with colchicine, TMX 750 mg/L, 24 hours
[5] = Table 6: co-treatment with colchicine, TMX 750 mg/L, 48 hours
[6] = Table 6: co-treatment with colchicine, TMX 1500 mg/L, 24 hours
[7] = Table 6: co-treatment with colchicine, TMX 1500 mg/L, 48 hours
[8] = Table 6: co-treatment with colchicine, TMX 2000 mg/L, 24 hours
[9] = Table 6: co-treatment with colchicine, TMX 2000 mg/L, 48 hours
[10] = Table 7: co-treatment with colchicine, TMX 2000 mg/L, 24 hours
[11] = Table 7: co-treatment with colchicine, TMX 2000 mg/L, 48 hours
[12] = Table 7: co-treatment with colchicine, TMX 4000 mg/L, 24 hours
[13] = Table 7: co-treatment with colchicine, TMX 4000 mg/L, 48 hours
[14] = Table 7: co-treatment with colchicine, TMX 8000 mg/L, 24 hours
[15] = Table 7: co-treatment with colchicine, TMX 8000 mg/L, 48 hours
[16] = Table 8: co-treatment with colchicine, TMX 2000 mg/L, 24 hours
[17] = Table 8: co-treatment with colchicine, TMX 2000 mg/L, 48 hours
[18] = Table 8: co-treatment with colchicine, TMX 4000 mg/L, 24 hours
[19] = Table 8: co-treatment with colchicine, TMX 4000 mg/L, 48 hours
[20] = Table 8: co-treatment with colchicine, TMX 6000 mg/L, 24 hours
[21] = Table 8: co-treatment with colchicine, TMX 6000 mg/L, 48 hours

With `CNC(=O)Nc1ccc(S(=O)(=O)NC(=O)c2ccccc2OC)cc1` [Metcamifen, metcamifen] the “GST27 induced at the end of the ear pre-treatment” value ([1]; ear pre-treatment, 100 and 1000 mg/L, 6° C.) was < 10 ng/mg Total Soluble Protein (TSP), the “GST27 induced by ear pre-treatment” value ([1]; ear pre-treatment, as restated in Example 3) was “less than 10 ng/ml of TSP” and the “GST27 before doubling, Mean” value ([1]; ear pre-treatment, metcamifen 100 mg/L, 3 days, 6° C.) was 4 ng/mg of TSP. The “GST27 after doubling, Mean” value ([1]; ear pre-treatment, metcamifen 100 mg/L, 3 days, 6° C., then colchicine 48 hours) was 156 ng/mg of TSP, the “GST27 before doubling, Mean” value ([1]; ear pre-treatment, metcamifen 100 mg/L, 5 days, 6° C.) was 2 ng/mg of TSP and the “GST27 after doubling, Mean” value ([1]; ear pre-treatment, metcamifen 100 mg/L, 5 days, 6° C., then colchicine 48 hours) was 245 ng/mg of TSP. For the same molecule, the “GST27 before doubling, Mean” value ([1]; ear pre-treatment, metcamifen 1000 mg/L, 3 days, 6° C.) was 3 ng/mg of TSP, the “GST27 after doubling, Mean” value ([1]; ear pre-treatment, metcamifen 1000 mg/L, 3 days, 6° C., then colchicine 48 hours) was 178 ng/mg of TSP and the “GST27 before doubling, Mean” value ([1]; ear pre-treatment, metcamifen 1000 mg/L, 5 days, 6° C.) was 4 ng/mg of TSP. The “GST27 after doubling, Mean” value ([1]; ear pre-treatment, metcamifen 1000 mg/L, 5 days, 6° C., then colchicine 48 hours) was 303 ng/mg of TSP, the “GST27 induction at the end of the colchicine treatment” value ([1]; ear pre-treatment, then colchicine 48 hours) was “increased but insignificant” and the “GST27 expression level with addition of 0.5% Tween20” value ([1]; spraying corn ears, 100 and 1000 mg/L, over 4 days) was “did not improve”. The “GST27 expression versus control” value ([2]; post-treatment 5 and 10 mg/L, 3.5 g/L Gelzan, 24 and 48 hours) was “higher than the control group”, the “GST27 Mean” value ([2]; 5 mg/L, Duration 24 hours) was 327 ng/mg TSP and the “GST27 Mean” value ([2]; 5 mg/L, Duration 48 hours) was 317 ng/mg TSP. For the same molecule, the “GST27 Mean” value ([2]; 10 mg/L, Duration 24 hours) was 345 ng/mg TSP, the “GST27 Mean” value ([2]; 10 mg/L, Duration 48 hours) was 290 ng/mg TSP and the “GST27 Mean” value ([2]; 20 mg/L, Duration 24 hours) was 404 ng/mg TSP. The “GST27 Mean” value ([2]; 20 mg/L, Duration 48 hours) was 400 ng/mg TSP.

`CN1COCN(Cc2cnc(Cl)s2)/C1=N\[N+](=O)[O-]` [TMX, thiamethoxam] was tested, and the “Potted Rate Mean” value [3, 4] was 52%, the “Transplant Rate Mean” value [3, 4] was 33% and the “Potted Rate Mean” value [3, 5] was 12%. The “Transplant Rate Mean” value [3, 5] was 9%, the “Potted Rate Mean” value [3, 6] was 65% and the “Transplant Rate Mean” value [3, 6] was 41%. The “Potted Rate Mean” value [3, 7] was 18%, the “Transplant Rate Mean” value [3, 7] was 12% and the “Potted Rate Mean” value [3, 8] was 74%. For the same molecule, the “Transplant Rate Mean” value [3, 8] was 50%, the “Potted Rate Mean” value [3, 9] was 32% and the “Transplant Rate Mean” value [3, 9] was 21%. For the same molecule, the “Potted Rate Mean” value [3, 10] was 76%, the “Transplant Rate Mean” value [3, 10] was 73% and the “Potted Rate Mean” value [3, 11] was 22%. For the same molecule, the “Transplant Rate Mean” value [3, 11] was 15%, the “Potted Rate Mean” value [3, 12] was 82% and the “Transplant Rate Mean” value [3, 12] was 79%. For the same molecule, the “Potted Rate Mean” value [3, 13] was 67%, the “Transplant Rate Mean” value [3, 13] was 61% and the “Potted Rate Mean” value [3, 14] was 47%. The “Transplant Rate Mean” value [3, 14] was 45%, the “Potted Rate Mean” value [3, 15] was 20% and the “Transplant Rate Mean” value [3, 15] was 16%. For the same molecule, the “Potted Rate Mean” value [3, 16] was 68%, the “Transplant Rate Mean” value [3, 16] was 62% and the “Potted Rate Mean” value [3, 17] was 27%. The “Transplant Rate Mean” value [3, 17] was 26%, the “Potted Rate Mean” value [3, 18] was 90% and the “Transplant Rate Mean” value [3, 18] was 86%. For the same molecule, the “Potted Rate Mean” value [3, 19] was 63%, the “Transplant Rate Mean” value [3, 19] was 56% and the “Potted Rate Mean” value [3, 20] was 86%. For the same molecule, the “Transplant Rate Mean” value [3, 20] was 74%, the “Potted Rate Mean” value [3, 21] was 89% and the “Transplant Rate Mean” value [3, 21] was 83%. For the same molecule, the “Seedling height (overall plant height)” value ([3]; initial testing, TMX 150 or 750 mg/L, 24-hour and 48-hour) was “taller” and the potting rate ([3]; initial testing, TMX 150 or 750 mg/L, 24-hour co-treatment) was at least 80%.
